pIC50: −log10 of the molar value.
Target: T1, renin (Homo sapiens, UniProt P00797)
T1 construct: This test measures the formation of angiotensin I in human plasma; from tissue; host or cells: human plasma
T1 sequence (P00797 67-406): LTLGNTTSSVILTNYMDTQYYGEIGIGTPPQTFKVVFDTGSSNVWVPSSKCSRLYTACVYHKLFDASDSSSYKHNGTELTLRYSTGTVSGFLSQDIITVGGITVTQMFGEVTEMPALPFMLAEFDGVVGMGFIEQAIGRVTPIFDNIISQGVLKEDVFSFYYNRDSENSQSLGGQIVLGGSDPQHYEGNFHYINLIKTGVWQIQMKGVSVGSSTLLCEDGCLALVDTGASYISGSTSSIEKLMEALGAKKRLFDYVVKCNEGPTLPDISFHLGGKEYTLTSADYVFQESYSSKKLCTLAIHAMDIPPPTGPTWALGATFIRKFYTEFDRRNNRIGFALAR
Assay: Formation of angiotensin I in human plasma (in vitro test of Nussberger et al.), radio-immunoassay
Assay type: biochemical
Conditions: one range stated for the listed examples together, about, read-out: IC50, concentration of the inhibitor which reduces the formation of angiotensin I by 50%
From the text: The compounds of the formula (I) or (IA), and their pharmaceutically acceptable salts have an inhibitory effect on the natural enzyme renin. The latter passes from the kidneys into the blood and there brings about the cleavage of angiotensinogen to form the decapeptide angiotensin I which is then cleaved in the lung, the kidneys and other organs to the octa-peptide angiotensin II. Angiotensin II raises the blood pressure both directly by arterial constriction, and indirectly by releasing the hormone aldosterone, which retains sodium ions, from the adrenals, which is associated with an increase in the extracellular fluid volume. This increase is attributable to the effect of angiotensin II itself or of the heptapeptide angiotensin III formed therefrom as cleavage product. Inhibitors of the enzymatic activity of renin bring about a reduction in the formation of angiotensin I and, as a consequence thereof, the formation of a smaller amount of angiotensin II. The reduced concentration of this active peptide hormone is the direct cause of the blood pressure-lowering effect of renin inhibitors.
The effect of renin inhibitors is detected inter alia experimentally by means of in vitro tests where the reduction in the formation of angiotensin I is measured in various systems (human plasma, purified human renin together with synthetic or natural renin substrate). The following in vitro test of Nussberger et al. (1987) J. Cardiovascular Pharmacol., Vol. 9, pp. 39-44, is used inter alia. This test measures the formation of angiotensin I in human plasma. The amount of angiotensin I formed is determined in a subsequent radio-immunoassay. The effect of inhibitors on the formation of angiotensin I is tested in this system by adding various concentrations of these substances. The IC50 is defined as the concentration of the particular inhibitor which reduces the formation of angiotensin I by 50%. The compounds of the present invention show inhibitory effects in the in vitro systems at minimal concentrations of about 10^−6 to about 10^−10 mol/l.

pIC50, 6.09 to 8.42:
COCCCN1CCOc2ccc(CO[C@H]3CNC[C@@H](OCC(=O)N4[C@H](C)COC[C@@H]4C)[C@@H]3c3ccc(OC)cc3)cc21 [Example 61, 1-((3S,5R)-3,5-Dimethylmorpholin-4-yl)-2-{(3S,4R,5R)-4-(4-methoxyphenyl)-5-[4-(3-methoxypropyl)-3,4-dihydro-2H-benzo[1,4]oxazin-6-ylmethoxy]piperidin-3-yloxy}-ethanone]
COCCCN1CCOc2ccc(CO[C@H]3CNC[C@@H](OC[C@H](O)COC)[C@@H]3c3ccc(OC)cc3)cc21 [Example 2, (R)-1-Methoxy-3-{(3S,4R,5R)-4-(4-methoxyphenyl)-5-[4-(3-methoxypropyl)-3,4-dihydro-2H-benzo[1,4]oxazin-6-ylmethoxy]piperidin-3-yloxy}propan-2-ol]
COCCCN1CCOc2ccc(CO[C@H]3CNC[C@@H](OCC#N)[C@@H]3c3ccc(OC)cc3)cc21 [Example 1, {(3S,4R,5R)-4-(4-Methoxyphenyl)-5-[4-(3-methoxypropyl)-3,4-dihydro-2H-benzo[1,4]oxazin-6-ylmethoxy]piperidin-3-yloxyl}acetonitrile]
COCCCN1CCOc2ccc(CO[C@H]3CNC[C@@H](OC[C@H](O)COC)[C@@H]3c3ccc(C#N)cc3)cc21 [Example 73, 4-{(3S,4R,5R)-3((R)-2-Hydroxy-3-methoxypropoxy)-5-[4-(3-methoxypropyl)-3,4-dihydro-2H-benzo[1,4]oxazin-6-ylmethoxy]piperidin-4-yl}benzonitrile]
COCCCN1CCOc2ccc(CO[C@H]3CNC[C@@H](OCC(C)(C)OC)[C@@H]3c3ccc(OC)cc3)cc21 [Example 8, 6-[(3R,4R,5S)-5-(2-Methoxy-2-methylpropoxy)-4-(4-methoxyphenyl)piperidin-3-yloxymethyl]-4-(3-methoxypropyl)-3,4-dihydro-2H-benzo[1,4]oxazine]
COCCCN1CCOc2ccc(CO[C@H]3CNC[C@@H](CNC(C)C)[C@@H]3c3ccc(OC)cc3)cc21 [Example 87, Isopropyl-{(3S,4R,5R)-4-(4-methoxyphenyl)-5-[4-(3-methoxypropyl)-3,4-dihydro-2H-benzo[1,4]oxazin-6-ylmethoxy]piperidin-3-ylmethyl}amine]
C#CCO[C@@H]1CNC[C@H](OCc2ccc3c(c2)N(CCCOC)CCO3)C1c1ccc(OC)cc1 (stereo in doubt) [Example 5, 6-[(3R,4R,5S)-4-(4-Methoxyphenyl)-5-prop-2-ynyloxypiperidin-3-yloxymethyl]-4-(3-methoxy-propyl)-3,4-dihydro-2H-benzo[1,4]oxazine]
COCCCN1CCOc2ccc(CO[C@H]3CNC[C@@H](OC[C@H](O)COC)[C@@H]3c3ccc(SCCOC)cc3)cc21 [Example 70, (R)-1-Methoxy-3-{(3S,4R,5R)-4-[4-(2-methoxyethylsulfanyl)phenyl]-5-[4-(3-methoxy-propyl)-3,4-dihydro-2H-benzo[1,4]oxazin-6-ylmethoxy]piperidin-3-yloxy}propan-2-ol]
COCCCN1CCOc2ccc(CO[C@H]3CNC[C@@H](OC[C@@H](O)COC)[C@@H]3c3ccc(C#N)cc3)cc21 [Example 74, 4-{(3S,4R,5R)-3((S)-2-Hydroxy-3-methoxypropoxy)-5-[4-(3-methoxypropyl)-3,4-dihydro-2H-benzo[1,4]oxazin-6-ylmethoxy]piperidin-4-yl}-benzonitrile]
COCCCN1CCOc2ccc(CO[C@H]3CNC[C@@H](OCCN4[C@H](C)COC[C@@H]4C)[C@@H]3c3ccc(OC)cc3)cc21 [Example 68, 6-[(3R,4R,5S)-5-[2-((3R,5S)-3,5-Dimethylmorpholin-4-yl)ethoxy]-4-(4-methoxy-phenyl)piperidin-3-yloxymethyl]-4-(3-methoxypropyl)-3,4-dihydro-2H-benzo[1,4]oxazine]
COCCCSc1ccc([C@@H]2[C@@H](OCc3ccc4c(c3)N(CCCOC)CCO4)CNC[C@H]2OC[C@H](O)COC)cc1 [Example 71, (R)-1-Methoxy-3-{(3S,4R,5R)-5-[4-(3-methoxypropyl)-3,4-dihydro-2H-benzo[1,4]oxazin-6-ylmethoxy]-4-[4-(3-methoxypropylsulfanyl)phenyl]piperidin-3-yloxy}propan-2-ol]
COCCCN1CCOc2ccc(CO[C@H]3CNC[C@@H](CNC(C)=O)[C@@H]3c3ccc(OC)cc3)cc21 [Example 91, N-{(3S,4R,5R)-4-(4-Methoxyphenyl)-5-[4-(3-methoxypropyl)-3,4-dihydro-2H-benzo[1,4]oxazin-6-ylmethoxy]piperidin-3-ylmethyl}acetamide]

Source: patent US20090029981A1, “SUBSTITUTED 4-PHENYLPIPERIDINES” (priority 2006, published 2009)
